Data published in article PMC11111408, “Concurrent inhibition of oncogenic and wild-type RAS-GTP for cancer therapy” (Nature, 2024).
Like-named read-outs stand apart in the source and are kept apart here.

Tested on: panel of 183 cancer cell lines
Test: Cell panel of 183 cancer cell lines, viability (CTG) at Crown Bioscience
Type: cell-based
Settings: Homo sapiens
Excerpt: The panel consisted of cell lines with any substitution at position 12 of KRAS, NRAS or HRAS (KRAS(G12X), NRAS(G12X), HRAS(G12X)); substitutions in KRAS, NRAS or HRAS at any position other than 12, 13 and 61 (KRAS(other/VUS), NRAS(other/VUS), HRAS(other/VUS)); other oncogenic mutations in the RAS pathway (ABL1, ALK, ARAF, BRAF, CBL, EGFR, ERBB2, ERBB3, ERBB4, ERRFI1, FGFR1, FGFR2, FGFR3, FGFR4, FLT3, HRAS, IGF1R, JAK2, KIT, MAP2K1, MAP2K2, MAPK1, MET, NF1, NRAS, NTRK1, NTRK2, NTRK3, PDGFRA, PTPN11, RAC1, RAF1, RASA1, RET, RIT1, ROS1 and SOS1); and no oncogenic mutations in the RAS pathway. […] Cells were incubated for 120 h, and cell viability was determined using the CellTiter-Glo Luminescent Cell Viability Assay (CTG) (Promega, G7572) according to the manufacturer’s instructions.

## CCn1c(-c2cc(N3CCN(C4CC4)CC3)cnc2[C@H](C)OC)c2c3cc(ccc31)-c1csc(n1)C[C@H](NC(=O)[C@H]1[C@@H]3COC[C@@H]31)C(=O)N1CCC[C@H](N1)C(=O)OCC(C)(C)C2 [RMC-7977]
OVCAR-5, read-out: RMC-7977 EC50 (M), OVCAR5, KRAS G12V, Ovary
  EC50: 1.02e-09 M
OVCAR-8, read-out: RMC-7977 EC50 (M), OVCAR8, KRAS P121H, Ovary
  EC50: > 1e-06 M
PANC-1, read-out: RMC-7977 EC50 (M), PANC1, KRAS G12D, Pancreas
  EC50: 1.66e-09 M
PANC-03-27, read-out: RMC-7977 EC50 (M), PANC0327, KRAS G12V, Pancreas
  EC50: 3.39e-10 M
PL45, read-out: RMC-7977 EC50 (M), PL45, KRAS G12D, Pancreas
  EC50: 3.31e-08 M
PSN1, read-out: RMC-7977 EC50 (M), PSN1, KRAS G12R, Pancreas
  EC50: 3.24e-09 M
PTPN11^MUT cell lines, read-out: median EC50
  EC50: 7.95e-09 M
Panc 05.04, read-out: RMC-7977 EC50 (M), PANC0504, KRAS G12D, Pancreas
  EC50: 1.62e-09 M
Panc1005, read-out: RMC-7977 EC50 (M), PANC1005, KRAS G12D, Pancreas
  EC50: 2.34e-09 M
RAS pathway wild-type (WT) cell lines, read-out: median EC50
  EC50: 7.15e-08 M
RL95-2, read-out: RMC-7977 EC50 (M), RL952, HRAS Q61H, Uterus
  EC50: 4.57e-09 M
RT112/84, read-out: RMC-7977 EC50 (M), RT11284, FGFR fusion, Bladder
  EC50: 4.87e-09 M
SCC-9, read-out: RMC-7977 EC50 (M), SCC9, HRAS L133R, HN/Tongue
  EC50: 1.23e-08 M
SHP77, read-out: RMC-7977 EC50 (M), SHP77, KRAS G12V, Lung
  EC50: > 1e-06 M
SK-BR-3, read-out: RMC-7977 EC50 (M), SKBR3, MET amp, Breast
  EC50: > 1e-06 M
SK-CO-1, read-out: RMC-7977 EC50 (M), SKCO1, KRAS G12V, Large intestine/Colorectum
  EC50: 1.05e-09 M
SK-LMS-1, read-out: RMC-7977 EC50 (M), SKLMS1, NF1 LOF, Vulva
  EC50: 6.33e-09 M
SK-LU-1, read-out: RMC-7977 EC50 (M), SKLU1, KRAS G12D, Lung
  EC50: > 1e-06 M
SK-MEL-2, read-out: RMC-7977 EC50 (M), SKMEL2, NRAS Q61R, Skin
  EC50: 9.12e-09 M
SK-N-AS, read-out: RMC-7977 EC50 (M), SKNAS, NRAS Q61K, Brain&Nerves
  EC50: 1.91e-09 M
SK-N-FI, read-out: RMC-7977 EC50 (M), SKNFI, RAS pathway WT, Brain&Nerves
  EC50: 3.82e-08 M
SK-N-SH, read-out: RMC-7977 EC50 (M), SKNSH, NRAS Q61K, Brain&Nerves
  EC50: 2.4e-07 M
SK-OV-3, read-out: RMC-7977 EC50 (M), SKOV3, RAS pathway WT, Ovary
  EC50: 5.38e-08 M
SNU1, read-out: RMC-7977 EC50 (M), SNU1, KRAS G12D, Stomach
  EC50: 7.76e-09 M
SNU668, read-out: RMC-7977 EC50 (M), SNU668, KRAS Q61K, Stomach
  EC50: 4.57e-09 M
SNU-5, read-out: RMC-7977 EC50 (M), SNU5, MET amp, Stomach
  EC50: 3.86e-09 M
SNU-387, read-out: RMC-7977 EC50 (M), SNU387, NRAS Q61K, Liver
  EC50: 5.01e-09 M
SNU-398, read-out: RMC-7977 EC50 (M), SNU398, RAS pathway WT, Liver
  EC50: > 1e-06 M
SNU-601, read-out: RMC-7977 EC50 (M), SNU601, KRAS G12D, Stomach
  EC50: 3.09e-09 M
SU-DHL-1, read-out: RMC-7977 EC50 (M), SUDHL1, ALK fusion, Blood/lymphoma
  EC50: 7.61e-08 M
SU.86.86, read-out: RMC-7977 EC50 (M), SU8686, KRAS G12D, Pancreas
  EC50: 2.45e-09 M
SUM-159-PT, read-out: RMC-7977 EC50 (M), SUM159PT, HRAS G12D, Breast
  EC50: 2.45e-09 M
SW48, read-out: RMC-7977 EC50 (M), SW48, HRAS G161R, Large intestine/Colorectum
  EC50: > 1e-06 M
SW480, read-out: RMC-7977 EC50 (M), SW480, KRAS G12V, Large intestine/Colorectum
  EC50: 2.57e-09 M
SW626, read-out: RMC-7977 EC50 (M), SW626, KRAS G12V, Ovary
  EC50: 1.82e-09 M
SW684, read-out: RMC-7977 EC50 (M), SW684, NF1 LOF, Soft tissue
  EC50: 3.68e-08 M
SW756, read-out: RMC-7977 EC50 (M), SW756, KRAS G12C, Ovary
  EC50: 1.17e-08 M
SW780, read-out: RMC-7977 EC50 (M), SW780, FGFR fusion, Bladder
  EC50: 5e-09 M
SW837, read-out: RMC-7977 EC50 (M), SW837, KRAS G12C, Large intestine/Colorectum
  EC50: 1.7e-09 M
SW900, read-out: RMC-7977 EC50 (M), SW900, KRAS G12V, Lung
  EC50: 4.07e-09 M
SW948, read-out: RMC-7977 EC50 (M), SW948, KRAS Q61L, Large intestine/Colorectum
  EC50: 1.45e-08 M
SW 1116, read-out: RMC-7977 EC50 (M), SW1116, KRAS G12A, Large intestine/Colorectum
  EC50: 1.82e-08 M
SW1271, read-out: RMC-7977 EC50 (M), SW1271, NRAS Q61R, Lung
  EC50: 2.19e-09 M
SW1463, read-out: RMC-7977 EC50 (M), SW1463, KRAS G12C, Large intestine/Colorectum
  EC50: 7.59e-09 M
SW1573, read-out: RMC-7977 EC50 (M), SW1573, KRAS G12C, Lung
  EC50: > 1e-06 M
SW1783, read-out: RMC-7977 EC50 (M), SW1783, RAS pathway WT, Brain&Nerves
  EC50: 4.53e-08 M
SW1990, read-out: RMC-7977 EC50 (M), SW1990, KRAS G12D, Pancreas
  EC50: 1.02e-09 M
SW-403, read-out: RMC-7977 EC50 (M), SW403, KRAS G12V, Large intestine/Colorectum
  EC50: 1.15e-09 M
SW-620, read-out: RMC-7977 EC50 (M), SW620, KRAS G12V, Large intestine/Colorectum
  EC50: 9.55e-10 M
TOV21G, read-out: RMC-7977 EC50 (M), TOV21G, KRAS G13C, Ovary
  EC50: 1.41e-08 M
U-87 MG, read-out: RMC-7977 EC50 (M), U87MG, NF1 LOF, Brain&Nerves
  EC50: 2.81e-08 M
U-118-MG, read-out: RMC-7977 EC50 (M), U118MG, ROS1 fusion, GBM
  EC50: 5.95e-08 M
UMUC3, read-out: RMC-7977 EC50 (M), UMUC3, KRAS G12C, Bladder
  EC50: 4.17e-10 M
Cell lines with NF1 loss of function and PTPN11 mutations, read-out: median EC50
  EC50: 2.81e-08 M
Cell lines with mutationally activated RTKs (RTK^MUT/fusion), read-out: median EC50
  EC50: 6.14e-09 M
Cell lines with wild-type MET gene amplification (MET^AMP), read-out: median EC50
  EC50: 6.61e-09 M
non-G12 mutant KRAS cell lines, read-out: median EC50
  EC50: 2.51e-08 M
read-out: RMC-7977 EC50 (M), AGS, KRAS G12D, Lung
  EC50: 1.15e-09 M
read-out: RMC-7977 EC50 (M), ASH3, NRAS Q61R, HN/Thyroid
  EC50: 9.77e-09 M
read-out: RMC-7977 EC50 (M), HCC2279, EGFR mut, Lung
  EC50: 4.52e-09 M
